This is an account of results in patent publication US11890288B2, “Sulfonamide or sulfinamide compound having effect of inducing BRD4 protein degradation and pharmaceutical use thereof” (MITSUBISHI TANABE PHARMA CORPORATION, priority 2020, dated 2024).

Molecules are shown by their SMILES. Marks after values point to notes of the source that are not given here.

In one experiment the target is BRD4 protein (Homo sapiens (Human), UniProt O60885). Nature of the experiment: BRD4 protein degradation inducing action in LNCaP cells (immunofluorescence, 6 hr). Format: cell-based. To be noted: anti-BRD4 fluorescence intensity. Put shortly:
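Read-out is BRD4 immunofluorescence intensity (560/572 nm) after 6 hr compound treatment of LNCaP cells in 10% FBS/RPMI1640, with fixation, permeabilization and anti-BRD4 staining. Linear interpolation between the two concentrations flanking 50% of untreated intensity gives DC50.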

Experiment [1] has as its system human prostate cancer LNCaP cells. In words: Cytotoxic action on LNCaP cells (WST-8, 96 hr). It counts as cell-based. To be noted: 96 hr culture. The essentials: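 Viability read by WST-8 after 96 hr compound exposure of cells seeded overnight in 10% FBS/RPMI1640 (37° C, 5% CO2). Survival normalised to compound-free wells as 100%; IC50 obtained by straight-line interpolation between the two concentrations flanking 50% survival.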

Experiment [2] deals with human acute myeloid leukemia MV-4-11 cell transplanted mouse. In words: Antitumor effect of 1 week intermittent administration to MV-4-11 cell transplanted mouse (tail vein, days 1 and 8). It counts as in vivo. The note with it: tumor weight on day 15. How it is done:
The in vivo antitumor effect of the compound of the present invention was studied using human acute myeloid leukemia MV-4-11 cell transplanted mouse. MV-4-11 cells were subcutaneously transplanted into the inguinal region of male, 6-week-old BALB/c nude mouse (5×10^6 cells/mouse). The compound of the present invention was administered into the tail vein on days 1 and 8 from the time point when the assumed tumor volume determined from ½ab^2 (a is major axis and b is minor axis of tumor) reached about 200 mm^3 (day 1). The control group was administered with a solvent, 10% Kolliphor ELP/5% ethanol/85% saline solution. On day 15, the tumor was isolated, the weight was measured, and the tumor growth inhibitory rate IR (%) was calculated by the following formula. tumor growth inhibitory rate IR (%)={1−(average tumor weight of administration group/average tumor weight of nonadministration control group)}×100(%)

For a further experiment, the system named is MDA-MB-436 w/o2 cells. Nature of the experiment: Cytotoxic action on MDA-MB-436 w/o2 cells that acquired resistance to conventional BRD4 degraders (WST-8, 96 hr). It counts as cell-based, human. The note with it: for IC50: Homo sapiens, MDA-MB-436 w/o2 cells, 96 hr; for resistance: IC50 in MDA-MB-436 w/o2 cells divided by IC50 in MDA-MB-436 cells. The protocol:
(§1) The cytotoxic action of the compound of the present invention against cancer cells that acquired resistance to conventional BRD4 protein degradation inducing agents was evaluated in vitro. In this experiment, ARV-771 (Proc Natl Acad Sci USA. volume 113, pages 7124-7129 (28 Jun. 2016)) and MZ1 (ACS Chem Biol. Volume 10, pages 1770-1777 (21 Aug. 2015)), in which a ligand for VHL and BRD4 protein inhibitor are linked, were used as a conventional BRD4 protein degradation inducing agent serving as a comparison control. Human breast cancer MDA-MB-436 cells and MDA-MB-436 cells that acquired resistance to conventional BRD4 protein degradation inducing agents (MDA-MB-436 w/o2 cells) were suspended in 10% FBS/RPMI1640, seeded in a 96 well plate and cultured at 5% CO2, 37° C. overnight. A test compound dissolved in DMSO was diluted with 10% FBS/RPMI1640 and added and the cells were further cultured for 96 hr. After culturing, the viable cell number was measured using a cell number measurement WST-8 kit (Kishida Chemical Co., Ltd.). As a control, the measurement was performed under conditions free of the test compound. The cytotoxic activity of the compound of the present invention against each cell is shown in IC50 value in Table 4. The IC50 value is a concentration of the compound showing 50% cell survival rate when the cell survival rate thereof under compound untreated condition is 100%. It was calculated from the straight line connecting the cell survival rate at two points enclosing the 50% cell survival rate and the compound concentration. In addition, the tolerance (fold) was calculated by dividing the IC50 value in MDA-MB-436 w/o2 cells by the IC50 value in MDA-MB-436 cells.

Experiment [3] concerns Human breast cancer MDA-MB-436 cells. Nature of the experiment: Cytotoxic action on MDA-MB-436 cells (WST-8, 96 hr). It counts as cell-based. To be noted: Homo sapiens. How it is done:
as §1
A general note: Tetrazolium assays rely on reduction of a dye to a coloured formazan, in cell work by metabolically active cells.

As a reminder, the DC50 is the concentration at which degradation of the target reaches its halfway point. The low end stands for a more potent degrader, the high end for a less potent degrader. A word on the IC50: it is the concentration that inhibits the measured activity by half. The compound `COC(=O)C[C@@H]1N=C(c2ccc(-c3ccc(C(=O)NCc4ccc(S(=O)(=O)Nc5ccc(C)c6c(C#N)c[nH]c56)cc4)c(F)c3F)cc2)c2c(sc(C)c2C)-n2c(C)nnc21` [Example 74, methyl [(6S)-4-{4′-[({4-[(3-cyano-4-methyl-1H-indol-7-yl)sulfamoyl]phenyl}methyl)carbamoyl]-2′,3′-difluoro[1,1′-biphenyl]-4-yl}-2,3,9-trimethyl-6H-thieno[3,2-f][1,2,4]triazolo[4,3-a][1,4]diazepin-6-yl]acetate] had a DC50 at BRD4 protein of 0.092 nM. In addition, the IC50 in experiment [1] stood at 0.21 nM. The “tumor growth inhibitory rate” value is listed as 43** % in experiment [2] (4 mg/kg/day) and 94** % in experiment [2] (12.5 mg/kg/day).
`COC(=O)C[C@@H]1N=C(c2ccc(-c3ccc(C(=O)NCCc4ccc(S(=O)(=O)Nc5ccc(C)c6c(C#N)c[nH]c56)cc4)cc3F)cc2)c2c(sc(C)c2C)-n2c(C)nnc21` [Example 46, methyl [(6S)-4-{4′-[(2-{4-[(3-cyano-4-methyl-1H-indol-7-yl)sulfamoyl]phenyl}ethyl)carbamoyl]-2′-fluoro[1,1′-biphenyl]-4-yl}-2,3,9-trimethyl-6H-thieno[3,2-f][1,2,4]triazolo[4,3-a][1,4]diazepin-6-yl]acetate] yielded a DC50 on BRD4 protein of 0.11 nM. The IC50 in experiment [1] was 0.19 nM; with MDA-MB-436 w/o2 cells, 0.26 nM; in experiment [3], 0.2 nM. The resistance in the experiment with MDA-MB-436 w/o2 cells is 1.3 fold.
In the case of `COC(=O)C[C@@H]1N=C(c2ccc(-c3ccc(C(=O)NCc4ccc(S(=O)(=O)Nc5ccc(C)c6c(C#N)c[nH]c56)cc4)cc3Cl)cc2)c2c(sc(C)c2C)-n2c(C)nnc21` [Example 47, methyl [(6S)-4-{2′-chloro-4′-[({4-[(3-cyano-4-methyl-1H-indol-7-yl)sulfamoyl]phenyl}methyl)carbamoyl][1,1′-biphenyl]-4-yl}-2,3,9-trimethyl-6H-thieno[3,2-f][1,2,4]triazolo[4,3-a][1,4]diazepin-6-yl]acetate], the DC50 at BRD4 protein came out at 0.3 nM. Also, the IC50 in experiment [1] turned out to be 0.46 nM. Also, the “tumor growth inhibitory rate” value is 32* % in experiment [2] (4 mg/kg/day) and 68** % in experiment [2] (12.5 mg/kg/day).
`COC(=O)C[C@@H]1N=C(c2ccc(-c3ccc(C(=O)NCc4ccc(S(=O)(=O)Nc5ccc(C)c6c(C#N)c[nH]c56)cc4)nc3)cc2)c2c(sc(C)c2C)-n2c(C)nnc21` [Example 53, methyl [(6S)-4-(4-{6-[({4-[(3-cyano-4-methyl-1H-indol-7-yl)sulfamoyl]phenyl}methyl)carbamoyl]pyridin-3-yl}phenyl)-2,3,9-trimethyl-6H-thieno[3,2-f][1,2,4]triazolo[4,3-a][1,4]diazepin-6-yl]acetate]: the DC50 at BRD4 protein stood at 0.078 nM. The IC50 in experiment [1] amounted to 0.16 nM; in the experiment with MDA-MB-436 w/o2 cells it was 0.32 nM; in experiment [3], 0.21 nM. For the same compound, the resistance with MDA-MB-436 w/o2 cells stood at 1.5 fold.
As to `CCc1ccc(NS(=O)(=O)c2ccc(CNC(=O)c3ccc(-c4ccc(C5=N[C@@H](CC(=O)OC)c6nnc(C)n6-c6sc(C)c(C)c65)cc4)cc3)cc2)c2[nH]cc(C#N)c12` [Example 43, methyl [(6S)-4-{4′-[({4-[(3-cyano-4-ethyl-1H-indol-7-yl)sulfamoyl]phenyl}methyl)carbamoyl][1,1′-biphenyl]-4-yl}-2,3,9-trimethyl-6H-thieno[3,2-f][1,2,4]triazolo[4,3-a][1,4]diazepin-6-yl]acetate], it took 0.12 nM to reach half-maximal degradation at BRD4 protein (DC50). Further, the IC50 in experiment [1] was 0.23 nM; in the experiment with MDA-MB-436 w/o2 cells, 0.42 nM; in experiment [3], 0.34 nM. This compound also returned a resistance in the experiment on MDA-MB-436 w/o2 cells of 1.3 fold.
On to `CCc1ccc(NS(=O)(=O)c2ccc([C@@H](C)NC(=O)c3cnc(-c4ccc(C5=N[C@@H](CC(=O)OC)c6nnc(C)n6-c6sc(C)c(C)c65)cc4)cn3)cc2)c2[nH]cc(C#N)c12` [Example 106, methyl {(6S)-4-[4-(5-{[(1R)-1-{4-[(3-cyano-4-ethyl-1H-indol-7-yl)sulfamoyl]phenyl}ethyl]carbamoyl}pyrazin-2-yl)phenyl]-2,3,9-trimethyl-6H-thieno[3,2-f][1,2,4]triazolo[4,3-a][1,4]diazepin-6-yl}acetate], for which, at BRD4 protein, the DC50 stood at 0.059 nM. In experiment [1], this compound returned an IC50 of 0.079 nM. The “tumor growth inhibitory rate” value is reported as 96** % in experiment [2] (4 mg/kg/day) and 98** % in experiment [2] (12.5 mg/kg/day).
Turning to `COC(=O)C[C@@H]1N=C(c2ccc(-c3ccc(C(=O)NCCc4ccc(S(=O)(=O)Nc5ccc(C)c6c(C#N)c[nH]c56)cc4)c(F)c3F)cc2)c2c(sc(C)c2C)-n2c(C)nnc21` [Example 100, methyl [(6S)-4-{4′-[(2-{4-[(3-cyano-4-methyl-1H-indol-7-yl)sulfamoyl]phenyl}ethyl)carbamoyl]-2′,3′-difluoro[1,1′-biphenyl]-4-yl}-2,3,9-trimethyl-6H-thieno[3,2-f][1,2,4]triazolo[4,3-a][1,4]diazepin-6-yl]acetate], the DC50 on BRD4 protein is 0.085 nM. In addition, it took 0.16 nM to reach half-maximal inhibition in experiment [1] (IC50).
`Cc1sc2c(c1C)C(c1ccc(-c3ccc(C(=O)NCc4ccc(S(=O)(=O)Nc5ccc(C)c6c(C#N)c[nH]c56)cc4)cc3F)cc1)=N[C@@H](CC(=O)OC(C)(C)C)c1nnc(C)n1-2` [Example Compound 142, t-butyl [(6S)-4-{4′-[({4-[(3-cyano-4-methyl-1H-indol-7-yl)sulfamoyl]phenyl}methyl)carbamoyl]-2′-fluoro[1,1′-biphenyl]-4-yl)-2,3,9-trimethyl-6H-thieno[3,2-f][1,2,4]triazolo[4,3-a][1,4]diazepin-6-yl]acetate] came in with a DC50 on BRD4 protein of 0.51 nM. The IC50 in experiment [1] turned out to be 1.3 nM.
At BRD4 protein, `Cc1sc2c(c1C)C(c1ccc(-c3cnc(C(=O)NCc4ccc(S(=O)(=O)Nc5ccc(C)c6c(C#N)c[nH]c56)cc4)nc3)cc1)=N[C@@H](CC(=O)OC(C)(C)C)c1nnc(C)n1-2` [Example Compound 147, t-butyl [(6S)-4-(4-{2-[({4-[(3-cyano-4-methyl-1H-indol-7-yl)sulfamoyl]phenyl}methyl)carbamoyl]pyrimidin-5-yl}phenyl)-2,3,9-trimethyl-6H-thieno[3,2-f][1,2,4]triazolo[4,3-a][1,4]diazepin-6-yl]acetate] showed a DC50 of 0.13 nM. In experiment [1], the IC50 is 0.42 nM.
